Source: patent US4221781A, “Synergistic penicillin-cephalosporin compositions and methods” (priority 1971, dated 1980)
Where two headings read alike, the source gives them in different places. Values belong to the molecule of their own block, whether it stands above or below them.

Legend:
Proteus [1] = experiment: Example 1: in vitro M.I.C., serial dilution test, Proteus; type: cell-based; conditions: 37° C overnight
Procedure: (§1) Tryptose phosphate broth, containing the appropriate concentrations of the compounds or of the combination of them, was inoculated with 0.5×10^4 -5×10^4 organisms of the various microorganisms tested and incubated overnight at 37° C. Minimum inhibitory concentrations (M.I.C.) were taken as the concentrations of the compounds or of the combination at which no visible growth occurred.

E.coli III [2] = experiment: Example 6: emergence of resistance, subculturing by serial twofold broth dilution; type: cell-based; conditions: Escherichia coli
Procedure: Subculturing using a serial twofold broth dilution technique was performed with 6-(D-α-amino-phenylacetamido)-penicillanic acid (I), 6-[(piperidyl-1)methyleneamino]penicillanic acid (IV) and a 1:1 combination of I+IV. As inocula were used bacteria from the tube with the highest concentration of compound still permitting visible growth to the naked eye after incubation at 37° C. overnight. The following increases in MIC-values were noted.

E.coli III [3] = experiment: Example 3: in vivo activity, mean curative dose in mice infected with E.coli III; design: species or system female NMRI white mice; conditions: Escherichia coli, sc, 96 h, subcutaneous, read-out: CD50 (mean curative dose)
Procedure: The number of deaths in the various groups were recorded after 96 hours and the mean curative doses (CD50) were calculated. (In the table, LD50 gives the dilution of an overnight culture of the organism causing a 50% death rate in animals receiving no therapy; the number of LD50 -doses records the severity of the infections given to the animals.)

Coliforma = experiment: Example 9: in vitro MIC, serial dilution test, Coliforma; type: cell-based
Procedure: as §1
(§2) Using the technique described in Example 1 the in vitro effect of combinations of 6-(D-α-aminophenylacetamido)-penicillanic acid (I) and 6-[(N,N-diethylformamidino)-N'-amino]penicillanic acid (VII) in the ratios 1:1, 1:2 and 2:1 against clinically isolated strains of Coliforma, Klebsiella-Enterobacter and Proteus was determined in serial dilution tests.

Proteus vulgaris = experiment: Example 1: in vitro M.I.C., serial dilution test, Proteus vulgaris; type: cell-based
Procedure: as §1

Klebsiella-Enterobacter [4] = experiment: Example 9: in vitro MIC, serial dilution test, Klebsiella-Enterobacter; type: cell-based
Procedure: as §1, §2

[5] = tested on: clinically isolated coliform; experiment: Example 7: emergence of resistance, subculturing by serial twofold broth dilution; type: cell-based
Procedure: Subculturing using a serial twofold broth dilution technique was performed with 6-(D-α-aminophenylacetamido)-penicillanic acid (I), 6-[(hexahydro-1H-azepin-1-yl)methyleneamino]penicillanic acid (II), and a 1:1 combination of I and II. The strain used was a clinically isolated coliform. As inocula were used bacteria from the tube with the highest concentration of compound still permitting visible growth to the naked eye after incubation at 37° C. overnight. The following increases in MIC values were noted.

Proteus [6] = experiment: Example 4: in vitro M.I.C., serial dilution test, Proteus; type: cell-based
Procedure: as §1

Proteus mirabilis = experiment: Example 1: in vitro M.I.C., serial dilution test, Proteus mirabilis; type: cell-based; conditions: Proteus mirabilis strain 35895; 37° C overnight
Procedure: as §1

Klebsiella-Enterobacter [7] = experiment: Example 4: in vitro M.I.C., serial dilution test, Klebsiella-Enterobacter; type: cell-based
Procedure: as §1

Proteus [8] = experiment: Example 9: in vitro MIC, serial dilution test, Proteus; type: cell-based
Procedure: as §1, §2

Coliform = experiment: Example 1: in vitro M.I.C., serial dilution test, coliforms; type: cell-based; conditions: 37° C overnight
Procedure: as §1

[9] = tested on: clinically isolated coliform bacterium; experiment: Example 5: in vitro M.I.C. of IV, various penicillins and 1:1 combinations; type: cell-based
Procedure: as §1
Using the same technique as described in Example 1 the in vitro activity of 6[(piperidyl-1)-methyleneamino]-penicillianic acid (IV), of various penicillins, and of 1:1 combinations of IV with these penicillins, was determined against a clinically isolated coliform bacterium.

[10] = tested on: Proteus (Proteus Mirabilis I 190); experiment: Example 11: in vitro M.I.C. of II, cephalosporins and 1:1 combinations; type: cell-based
Procedure: as §1
Using the same technique as described in Example 1 the in vitro activity of 6-[(hexahydro-1H-azepin-1-yl)methyleneamino]penicillanic acid (II), of various cephalosporins and of 1:1 combinations of II with these cephalosporins was determined against a clinically isolated strain of Proteus (Proteus Mirabilis I 190).

[11] = tested on: Klebsiella-Enterobacter (strain 4/71); experiment: Example 10: in vitro M.I.C. of II, cephalosporins and 1:1 combinations; type: cell-based
Procedure: as §1
Using the same technique as described in Example 1 the in vitro activity of 6-[(hexahydro-1H-azepin-1-yl)methyleneamino]penicillanic acid (II), of various cephalosporins previously mentioned in this specification, and of 1:1 combinations of II with these cephalosporins was determined against a clinically isolated strain of Klebsiella-Enterobacter (strain 4/71)

[12] = LD50 1.5·10^-3, 6.6 LD50-doses given
[13] = LD50 8.1·10^-4, 1.2·10^4 LD50-doses given
[14] = Proteus vulgaris A, 37° C overnight, read-out: M.I.C.
[15] = Proteus Mirabilis I 190, read-out: M.I.C.
[16] = Klebsiella-Enterobacter strain 4/71, read-out: M.I.C.

Structure (SMILES): CC1(C)S[C@@H]2[C@H](NC(=O)[C@H](N)c3ccccc3)C(=O)N2[C@H]1C(=O)O [I, 6-(D-α-aminophenylacetamido)penicillanic acid]
- MIC (Proteus [1]; Proteus strain 12/70): 100 µg/mL
- MIC (Proteus [1]; Proteus strain 13/70): 100 µg/mL
- MIC (Proteus [1]; Proteus strain 20/70): > 100 µg/mL
- MIC (E.coli III [2]; passage 0): 1.56 µg/mL
- MIC (E.coli III [2]; passage 1): 6.25 µg/mL
- MIC (E.coli III [2]; passage 2): 25 µg/mL
- MIC (E.coli III [2]; passage 3): 50 µg/mL
- MIC (E.coli III [2]; passage 4): 50 µg/mL
- MIC (E.coli III [2]; passage 5): 100 µg/mL
- MIC (E.coli III [2]; passage 6): 100 µg/mL
- ED50 (E.coli III [3]; [12]): 5.5 mg/kg
- ED50 (E.coli III [3]; [13]): 250 mg/kg
- MIC (Coliforma; Coliforma strain 1): 1.56 µg/mL
- MIC (Coliforma; Coliforma strain 4): 3.12 µg/mL
- MIC (Coliforma; Coliforma strain 7): 1.56 µg/mL
- MIC (Coliforma; Coliforma strain 13): 3.12 µg/mL
- MIC (Coliforma; Coliforma strain 16): 3.12 µg/mL
- MIC (Proteus vulgaris): 50 µg/mL
- MIC (Proteus vulgaris; [14]): 0.78 µg/mL
- MIC (Klebsiella-Enterobacter [4]; Klebsiella-Enterobacter strain 1): 50 µg/mL
- MIC (Klebsiella-Enterobacter [4]; Klebsiella-Enterobacter strain 5): 100 µg/mL
- MIC (Klebsiella-Enterobacter [4]; Klebsiella-Enterobacter strain 7): > 100 µg/mL
- MIC (Klebsiella-Enterobacter [4]; Klebsiella-Enterobacter strain 8, read-out: MIC): 25 µg/mL
- MIC ([5]; passage 7): 12.5 µg/mL
- MIC ([5]; passage 8): 12.5 µg/mL
- MIC (Proteus [6]; Proteus strain 4/70): 1.56 µg/mL
- MIC (Proteus [6]; Proteus strain 6/70, read-out: M.I.C.): 0.39 µg/mL
- MIC (Proteus [6]; Proteus strain 7/70): 1.56 µg/mL
- MIC (Proteus [6]; Proteus strain 9/70): 6.25 µg/mL
- MIC (Proteus [6]; Proteus strain 10/70): 1.56 µg/mL
- MIC (Proteus mirabilis): 25 µg/mL
- MIC (Klebsiella-Enterobacter [7]; Klebsiella-Enterobacter strain 1/70): 50 µg/mL
- MIC (Klebsiella-Enterobacter [7]; Klebsiella-Enterobacter strain 2/70, read-out: M.I.C.): 25 µg/mL
- MIC (Klebsiella-Enterobacter [7]; Klebsiella-Enterobacter strain 5/70): 100 µg/mL
- MIC (Klebsiella-Enterobacter [7]; Klebsiella-Enterobacter strain 7/70): > 100 µg/mL
- MIC (Klebsiella-Enterobacter [7]; Klebsiella-Enterobacter strain 9/70): 50 µg/mL
- MIC (Klebsiella-Enterobacter [7]; Klebsiella-Enterobacter strain 10/70): 50 µg/mL
- MIC (Klebsiella-Enterobacter [7]; Klebsiella-Enterobacter strain 431): 100 µg/mL
- MIC (Proteus [8]): 3.12 µg/mL
- MIC (Coliform; Coliform strain 3/70): 1.56 µg/mL
- MIC (Coliform; Coliform strain 9/70): 3.12 µg/mL
- MIC (Coliform; Coliform strain 10/70): 3.12 µg/mL
- MIC (Coliform; Coliform strain 17/70): 3.12 µg/mL

Structure (SMILES): CC1(C)S[C@@H]2[C@H](NC(=O)[C@H](N=[N+]=[N-])c3ccccc3)C(=O)N2[C@H]1C(=O)O [6-(D-α-azidophenylacetamido)penicillanic acid]
- MIC [9]: 50 µg/mL

Structure (SMILES): CC(=O)OCC1=C(C(=O)O)N2C(=O)[C@@H](NC(=O)Cc3cccs3)[C@H]2SC1 [VI, cephalotin]
- MIC [10]: 3.12 µg/mL
- MIC [11]: 50 µg/mL

Structure (SMILES): CC1(C)S[C@@H]2[C@H](N=CN3CCCCCC3)C(=O)N2[C@H]1C(=O)O [II, 6-[(hexahydro-1H-azepin-1-yl)methyleneamino]penicillanic acid]
- MIC (Proteus [1]; Proteus strain 12/70, read-out: M.I.C.): 3.12 µg/mL
- MIC (Proteus [1]; Proteus strain 13/70, read-out: M.I.C.): 3.12 µg/mL
- MIC (Proteus [1]; Proteus strain 20/70, read-out: M.I.C.): > 100 µg/mL
- MIC [10, 15]: > 100 µg/mL
- ED50 (E.coli III [3]; [12]): 2 mg/kg
- ED50 (E.coli III [3]; [13]): > 500 mg/kg
- MIC (Proteus vulgaris; [14]): 0.19 µg/mL
- MIC (Proteus vulgaris; Proteus vulgaris B, 37° C overnight, read-out: M.I.C.): 1.56 µg/mL
- MIC ([5]; passage 0): 0.39 µg/mL
- MIC ([5]; passage 1): 6.25 µg/mL
- MIC ([5]; passage 2): 25 µg/mL
- MIC ([5]; passage 3): 25 µg/mL
- MIC ([5]; passage 4): 25 µg/mL
- MIC ([5]; passage 5): 25 µg/mL
- MIC ([5]; passage 7): 25 µg/mL
- MIC ([5]; passage 8): 25 µg/mL
- MIC (Proteus mirabilis): 0.78 µg/mL
- MIC (Coliform; Coliform strain 3/70): 12.5 µg/mL
- MIC (Coliform; Coliform strain 17/70): 0.78 µg/mL
- MIC [11, 16]: > 100 µg/mL

Structure (SMILES): O=C(Cc1cccs1)N[C@@H]1C(=O)N2C(C(=O)[O-])=C(C[n+]3ccccc3)CS[C@H]12 [Cephaloridine]
- MIC [10, 15]: 6.25 µg/mL
- MIC [11, 16]: 25 µg/mL

- MIC [10, 15]: 25 µg/mL
- MIC [11, 16]: > 100 µg/mL
Structure (SMILES): CC(=O)OCC1=C(C(=O)O)N2C(=O)C(NC(=O)CSc3ccccc3)C2SC1 (stereo not shown) [EPC 825/1]

Structure (SMILES): CC1=C(C(=O)O)N2C(=O)[C@@H](NC(=O)[C@H](N)c3ccccc3)[C@H]2SC1 [Cephalexine]
- MIC [10, 15]: 25 µg/mL
- MIC [11, 16]: 50 µg/mL

Structure (SMILES): CC1(C)S[C@@H]2[C@H](NC(=O)Cc3ccccc3)C(=O)N2[C@H]1C(=O)O [benzylpenicillin]
- MIC [9]: 25 µg/mL
